# Laboratory results: patent US20140155445A1, “Compounds and Methods for Treating Cancer and Diseases of the Central Nervous System” (Osta Biotechnologies Inc., priority 2007, published 2014)
# Structures can show the parent of a compound that is named as a salt.
# Assays:
# APPswe/PS1dE9 mice = experiment: Behavioral studies (maze, fear conditioning) in APPswe/PS1dE9 mice; assay type: in vivo, mouse
# Experimental: The experiments were performed at Pennington Biomedical Research Centre (PBRC) of Lousiana State University, Baton Rouge, Lousiana and were approved by the Institutional Animal Care and Use Committee (IACUC) of PBRC.
# The APPswe/PS1dE9 mice were generated against a C57/BL6J background by breeding either +/+ males or females with −/− females or males, respectively.
# Memantine (10 mg/kg) and both doses of QC-199 (15 mg/kg & 30 mg/kg) were prepared in batches and frozen for later use. Each compound was weighed and dissolved in injectable sterile saline solution. Memantine was prepared at a concentration of 1 mg/ml, the 15 mg/kg dose of QC-199 at a volume of 15 mg/10 ml, and the 30 mg/kg dose of QC-199 at a volume of 30 mg/10 ml. The compounds were prepared in this volume so that the mice could easily be injected based on their body weight, e.g., a 35 gram mouse was injected with 0.35 ml dosing solution.
# Memantine and QC-199 dosing solutions were administered to mice via i.p. injections. The mice were weighed 3 times/week and were injected with a volume that matched their body weight. The mice were injected daily and the injection located was alternated each day to avoid potential complications from injection in the same location on a daily basis.
# After reaching their respective treatment duration, the wild type and APP/PS1 double transgenic mice were run through the STM and fear conditioning. The STM consisted of one day of straight run training (running down an alley from the start box to the goal box). This phase was implemented to establish the contingency that moving forward would provide escape into the dark and dry goal box. The mice were required to reach a criterion of completing the straight run in 15 sec or less on 7 out of 9 trials over a maximum of 15 trials. […] The following day each mouse was administered 15 trials in the STM with approximately 7-10 min between each trial where they were placed into a holding cage with a towel. The latency to reach the goal box and the number of errors committed were the dependent measures of learning. However, in our experience, errors committed is much more indicative of learning and is reported for this project. Pictures of the straight run (A) and maze (B) are shown in FIG. 42, along with a schematic (C) of the maze indicating the correct path. The data from the maze was collapsed into blocks of 5 trials for data summary and presentation.
# Med Associates Inc.'s MED-VFC-NIR-M NIR Video Fear Conditioning System for Mouse, Pavlovian fear conditioning was conducted after the STM. On Day 1 the mice were placed in Context 1 and given 5 tone+shock pairings. On day 2 the mice were placed back into Context 1 and their freezing response to being placed back into the original context where fear conditioning occurred was measured. Freezing is operationally defined as the cessation of all movement except that required for respiration. Freezing was measured over 10 minutes, and data were summarized in 1-min intervals. On day 3 the mice were placed into a novel context (Context 2) for 10 min. […] For the final 5 min, the tone paired with shock during fear conditioning was presented. Again, the data was summarized in 1-min intervals.
# Maze data was analyzed by two-way ANOVAs to determine treatment group effects for both errors and run time after the data was collapsed into three 5 trial blocks. Planned comparisons of transgenic mice treated with saline with each of the drug treatments, memantine or QC-199 at 15 mg/kg/day and 30 mg/kg/day were conducted to evaluate group differences in the maze at each trial block and both tone and contextual fear conditioning tests. The critical a level was set at 0.05 for all statistical tests. The values in FIGS. 46A-46C represent the means±S.E.M. The data was analyzed using the SPSS statistical program version 11.0. […]
# SKMEL-V+ cells = experiment: Cell proliferation / survival, MTT assay, SKMEL-V+ cells; assay type: cell-based, human; conditions: 96 hours; for % cell survival: 6.25 μM to 100 μM
# Experimental: Exponentially growing SKMEL-V+ cells (1×10^3) were seeded in 96-well plates in complete medium. […] Cell survival was evaluated 96 hours later using the MTT metabolic assay (Benlimame N, He Q, Jie S, et al. FAK signaling is critical for ErbB-2/ErbB-3 receptor cooperation for oncogenic transformation and invasion. J Cell Biol 2005; 171: 505-16).
# [1] = system: human metastatic prostate cancer PC-3M cells; experiment: Orthotopic PC-3M prostate cancer model in SCID mice; assay type: in vivo
# From the text: PC-3 & PC-3M (human prostate carcinoma). The PC-3 human prostate cancer cell line was originally obtained from the American Type Culture Collection (Rockville, Md.). The PC-3M cell line was kindly provided by Dr. Issac (MD Anderson Cancer Center). This cell variant was derived from a liver metastasis produced by the parental PC-3 cells growing in the spleen of a nude mouse [Pettaway C A, Pathak S, Greene G, et al. Selection of highly metastatic variants of different human prostate carcinomas utilizing orthotopic implantation in nude mice.
# Male SCID mice were housed in laminar flow under specific pathogen-free conditions and used at 8-9 weeks of age. Animals were maintained in the LDI facilities approved by the Laboratory Animal Care in accordance with current Canadian regulations and standards for the use of animals for research.
# Mice were anesthesized with isofluorane given by inhalation and placed in a supine position. […] A low midline incision was made and the prostate was exposed. Fifty microliters of HBSS containing 1×10^6 cells was injected into a lateral lobe of the prostate. The wound was closed with surgical metal clips in two layers, the muscle layer first and then the skin layer using stainless steel clips (autoclips: 9 mm; Clay Adams Inc., Parsippany, N.J.). […] Control groups received the vehicle alone. Taxol™ was given either ip or iv as indicated.
# Primary tumors in the prostate were excised, measured, and weighed. When applicable, immunohistochemistry and H&E staining were conducted on one part of the tumor, fixed in formalin and embedded in paraffin or OCT compound (Miles Inc., Elkhart, Ind.); the later was rapidly frozen in liquid nitrogen, and stored at −70° C. Macroscopically enlarged regional lymph nodes were harvested and the presence of metastatic disease was confirmed by histology.
# The in vivo data was analyzed using the Mann-Whitney U test.
# [2] = system: PC-3 (human prostate carcinoma); experiment: Prostate carcinoma model PC-3 in SCID mice
# From the text: • Species and strain: Mouse (Mus musculus); female SCID (MDA231 and OVCAR3), male SCID (PC-3, HCT116); male CD57 B16 mice (BL16-BL6) • Age: 6-8 weeks old. • Supplier: Charles River Laboratories, Inc., St-Constant, Quebec, Canada. • Acclimation: Mice were acclimated to laboratory conditions for approximately 1 week prior to tumor cell inoculation. • Identification: Mice were identified by ear punch combination. • Housing: Mice were housed in groups of 3-5 in a designated animal facility with a temperature of 22° C., a relative humidity of 40-50%, and a 12 hr light/dark cycle.
# PC-3 (human prostate carcinoma). These cells were originally received from the ATCC. Early passage cells (tested free of mycoplasma) were grown to 60% confluence in DMEM medium supplemented with 10% fetal bovine serum, and antibiotics. Cell harvesting was performed using trypsin-EDTA solution.
# Exponentially growing cells were harvested using trypsin-EDTA solution. […] Cell viability was confirmed by trypan blue staining. […] One to 2 millions cells suspended in 0.1 mL phosphate buffer solution was implanted into the mammary fat pad (MCF7) or subcutaneously into the axillary region of the right flank of recipient SCID mice. All animals were inoculated at the same site.
# Mice were subjected to general examination on daily basis. […] Control groups received the vehicle alone. Chemotherapy drugs were also given by intraperitoneal route according to the schedule described below.
# Primary tumor growth was monitored every second to fourth day using calipers. Relative tumor volume (cm^3) was determined by the formula:
# Body weights were monitored every third to fifth day. Animals experiencing signs of discomfort were sacrificed immediately (in some cases they were replaced by spared mice). […] Mice were sacrificed by cervical dislocation and immediately subjected to full autopsy.
# HO-1 (rat spleen) = target: T1, HO-1 (rat spleen) (Rattus norvegicus, UniProt P06762); experiment: HO enzymatic activity in rat spleen microsomal fraction (CO formed from methemalbumin, gas chromatography); assay type: biochemical; conditions: rat spleen microsomes; average ± standard deviation of replicate experiments; read-out: IC50 HO-1 (rat spleen)/μM
# T1 construct: Spleen microsomes were used as a source of HO-1; from tissue; host or cells: spleen microsomal fraction of adult male Sprague-Dawley rats
# T1 sequence (P06762 1-289): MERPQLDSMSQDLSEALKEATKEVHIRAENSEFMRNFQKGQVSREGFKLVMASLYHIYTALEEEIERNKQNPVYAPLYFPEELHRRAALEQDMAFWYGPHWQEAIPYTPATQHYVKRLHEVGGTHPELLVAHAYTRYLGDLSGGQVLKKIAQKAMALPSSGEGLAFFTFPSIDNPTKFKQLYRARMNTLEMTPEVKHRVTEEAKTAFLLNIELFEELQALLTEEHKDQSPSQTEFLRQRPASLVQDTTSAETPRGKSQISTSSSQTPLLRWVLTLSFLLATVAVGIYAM
# HO-2 (rat brain) = target: T2, HO-2 (rat brain) (Rattus norvegicus, UniProt P23711); experiment: HO enzymatic activity in rat brain microsomal fraction (CO formed from methemalbumin, gas chromatography); assay type: biochemical; conditions: rat brain microsomes; average ± standard deviation of replicate experiments; read-out: IC50 HO-2 (rat brain)/μM
# T2 construct: brain microsomes were used as a source of HO-2; from tissue; host or cells: brain microsomal fraction of adult male Sprague-Dawley rats
# T2 sequence (P23711 1-315): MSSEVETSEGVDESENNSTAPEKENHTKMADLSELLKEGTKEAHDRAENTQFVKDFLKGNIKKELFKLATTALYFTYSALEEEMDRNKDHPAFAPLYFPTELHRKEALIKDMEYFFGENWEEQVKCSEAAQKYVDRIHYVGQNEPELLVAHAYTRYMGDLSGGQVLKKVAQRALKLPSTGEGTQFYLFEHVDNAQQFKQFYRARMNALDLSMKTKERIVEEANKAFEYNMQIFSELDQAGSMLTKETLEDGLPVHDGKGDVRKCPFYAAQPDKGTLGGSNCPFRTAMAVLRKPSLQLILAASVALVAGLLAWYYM
# [3] = QC-56 30 mg/kg intraperitoneally daily for 12 days, Taxol 10 mg/kg i.p. 3 cycles
smiles,measurement,setting,value
C[C@H]1CO[C@@](CCc2ccc(Cl)cc2)(Cn2ccnc2)O1.Cl,melting point,,148 to 149 °C
Cl.FC(F)(F)c1ccc(SC[C@@H]2CO[C@@](CCc3ccc(Cl)cc3)(Cn3ccnc3)O2)nc1,melting point,,156 to 157 °C
"CC12CC3CC(C)(C1)CC(N)(C3)C2 [Memantine, reference compound]",effect on maze errors and contextual fear conditioning (summary),"APPswe/PS1dE9 mice; Memantine, QC-199 15 mg/kg and 30 mg/kg, dtg mice",positive effect
same,maze errors vs saline-treated APP/PS1 mice,"APPswe/PS1dE9 mice; QC-199 15 mg/kg/day i.p., Memantine 10 mg/kg i.p., improved at Trial Blocks 2 and 3, not 1",improved maze
same,contextual fear conditioning (freezing) vs saline-treated APP/PS1 mice,"APPswe/PS1dE9 mice; QC-199 15 and 30 mg/kg/day, Memantine 10 mg/kg, Time Blocks 1-4",no significant differences
same,tone fear conditioning (freezing) vs saline-treated APP/PS1 mice,"APPswe/PS1dE9 mice; QC-199 15 and 30 mg/kg/day, Memantine 10 mg/kg, Trial Blocks 3 and 4",no significant differences
Cl.Clc1ccc(CC[C@@]2(Cn3ccnc3)OC[C@@H](CSc3ccc(Cl)cc3)O2)cc1,melting point,,128 to 129 °C
Cl.Oc1ccc(OC[C@H]2CO[C@@](CCc3ccc(Cl)cc3)(Cn3ccnc3)O2)cc1,melting point,,128 to 130 °C
Cl.Clc1ccc(CC[C@@]2(Cn3ccnc3)OC[C@@H](COc3ccc(I)cc3)O2)cc1 (stereo in doubt),melting point,,113 to 114 °C
Cl.Fc1ccc(CCC2(Cn3ccnc3)OCCO2)cc1,melting point,,153 to 154 °C
"Cl.FC(F)(F)c1ccc(CCCCn2ccnc2)cc1 [QC-234, 1-[4-(4-(Trifluoromethyl)phenyl)butyl]-1H-imidazole hydrochloride]",% cell survival,SKMEL-V+ cells,Dose dependent decrease in cell survival
Cl.Clc1ccc(CC[C@@]2(Cn3ccnc3)OC[C@@H](CSc3ccc(Br)cc3)O2)cc1,melting point,,141 to 142 °C
Cl.Clc1ccc(CC[C@@]2(Cn3ccnc3)OC[C@@H](CSC3CCCCC3)O2)cc1,melting point,,172 to 173 °C
C[C@@H]1CO[C@](CCc2ccc(Cl)cc2)(Cn2ccnc2)O1.Cl,melting point,,152 to 153 °C
"OC(Cn1ccnc1)c1ccc(-c2ccc(Br)cc2)cc1 (racemic) [QC-304, (±)-1-(4′-bromo-biphenyl-4-yl)-2-imidazol-1-yl-ethanol]",% cell survival,SKMEL-V+ cells,no significant change in cell survival
same,potency in comparison with the other HO-1 inhibitors,SKMEL-V+ cells; 6.25 μM,most potent
Cl.c1ccc(CCC2(Cn3ccnc3)OCCO2)cc1,melting point,,164 to 165 °C
COc1ccc(SC[C@@H]2CO[C@@](CCc3ccc(Cl)cc3)(Cn3ccnc3)O2)cc1.Cl,melting point,,139 to 140 °C
Cl.Clc1ccc(CC[C@@]2(Cn3ccnc3)OC[C@@H](COc3ccc(Br)cc3)O2)cc1 (stereo in doubt),melting point,,55 to 57 °C
Cl.Fc1ccc(SC[C@@H]2CO[C@@](CCc3ccc(Cl)cc3)(Cn3ccnc3)O2)cc1,melting point,,112 to 113 °C
Cl.Clc1ccc(CC[C@@]2(Cn3ccnc3)OC[C@@H](CSc3cccc(Br)c3)O2)cc1,melting point,,128 to 129 °C
Cl.OC(CCc1ccc(F)cc1)Cn1ccnc1 (racemic),melting point,,86 to 87 °C
Cl.Clc1ccc(CC[C@@]2(Cn3ccnc3)OC[C@H](COc3ccc(C45CC6CC(CC(C6)C4)C5)cc3)O2)cc1,melting point,,132 to 134 °C
"CC(=O)O[C@H]1C(=O)[C@@]2(C)[C@H]([C@H](OC(=O)c3ccccc3)[C@]3(O)C[C@H](OC(=O)[C@H](O)[C@@H](NC(=O)c4ccccc4)c4ccccc4)C(C)=C1C3(C)C)[C@]1(OC(C)=O)CO[C@@H]1C[C@@H]2O [Taxol™, paclitaxel, reference compound]",inhibition of tumor growth,[1]; [3],64%
same,reduction in microscopic lymph node metastases,[1]; [3],82%
same,reduction in microscopic lymph node metastases,"[1]; QC-56 40 mg/kg daily for 24 days, Taxol 10 mg/kg, 4 cycles",47%
same,inhibition of tumor growth compared to untreated mice,"[1]; QC-56 40 mg/kg daily for 24 days, Taxol 10 mg/kg, 4 cycles, 3 administrations per cycle",45%
same,Body Weights (g) d8 (mean + SE),"[2]; PC-3 mice, treatment day 8",22.40 ± 7.92 g
same,Body Weights (g) d42 (mean + SE),"[2]; PC-3 mice, treatment day 42",17.70 ± 6.25 g
same,inhibition of tumor growth compared to vehicle alone,"[2]; QC-56 60 mg/kg/ip, Taxol 10 mg/kg",~28%
C[C@H]1CO[C@](CCc2ccc(Cl)cc2)(Cn2ccnc2)O1.Cl,melting point,,172 to 173 °C
"O=C(Cn1ccnc1)c1cc(Cl)ccc1Cl [1-(2,5-dichloro-phenyl)-2-imidazol-1-yl-ethanone hydrochloride]",IC50,HO-1 (rat spleen),6.6 ± 0.2 µM
same,IC50,HO-2 (rat brain),58 ± 10 µM
COc1ccc(CCN2CCC(Nc3nc4ccccc4n3Cc3ccccc3)CC2)cc1,IC50,HO-1 (rat spleen),> 100 µM
same,IC50,HO-2 (rat brain),60 ± 18 µM
"c1cn(CCCCCCCCCCCCn2ccnc2)cn1 [1,12-bis-(1H-imidazol-1-yl)dodecane dihydrochloride]",IC50,HO-1 (rat spleen),~4 µM
same,IC50,HO-2 (rat brain),~9 µM
